Test results from US20060008574A1, “Galactosyl isomalt, method for production and use thereof” (priority 2002, published 2006).
Where two headings read alike, the source gives them in different places.

Legend:
lactase = assay: Stability with respect to lactase; assay type: in vitro ADME; conditions: 0.9 unit lactase, 1% solution, 37° C., 6 h
Source text: The enzyme lactase that is present at the mucosa in the small intestine serves in vivo to break down lactose that gets into the small intestine and the resulting monosaccharides are absorbed into the bloodstream through the intestinal wall.
The enzyme lactase is isolated in a modified method of Wallenfels, K., and Fischer, J. (Z. Physiologische Chemie 321 (1960) 223).
Solutions 1-5: see Example 8c)
Solution 6: 1% solution of lactose in solution 1
Solution 7: 1% solution of isomalt in solution 1
Solution 8: Lactase in solution 1
(solutions 2-7), mixed and incubated at 37° C. The reaction is stopped after 6 h by heating to 95° C. for 15 min.

[1] = target: saccharase/isomaltase (SI complex) (Sus scrofa, UniProt P56729); assay: Stability with respect to small intestine α-glucosidases: saccharase/isomaltase; conditions: 120 min incubation
saccharase/isomaltase (SI complex), sequence (P56729 with tags, fused parts or gaps limits assumed): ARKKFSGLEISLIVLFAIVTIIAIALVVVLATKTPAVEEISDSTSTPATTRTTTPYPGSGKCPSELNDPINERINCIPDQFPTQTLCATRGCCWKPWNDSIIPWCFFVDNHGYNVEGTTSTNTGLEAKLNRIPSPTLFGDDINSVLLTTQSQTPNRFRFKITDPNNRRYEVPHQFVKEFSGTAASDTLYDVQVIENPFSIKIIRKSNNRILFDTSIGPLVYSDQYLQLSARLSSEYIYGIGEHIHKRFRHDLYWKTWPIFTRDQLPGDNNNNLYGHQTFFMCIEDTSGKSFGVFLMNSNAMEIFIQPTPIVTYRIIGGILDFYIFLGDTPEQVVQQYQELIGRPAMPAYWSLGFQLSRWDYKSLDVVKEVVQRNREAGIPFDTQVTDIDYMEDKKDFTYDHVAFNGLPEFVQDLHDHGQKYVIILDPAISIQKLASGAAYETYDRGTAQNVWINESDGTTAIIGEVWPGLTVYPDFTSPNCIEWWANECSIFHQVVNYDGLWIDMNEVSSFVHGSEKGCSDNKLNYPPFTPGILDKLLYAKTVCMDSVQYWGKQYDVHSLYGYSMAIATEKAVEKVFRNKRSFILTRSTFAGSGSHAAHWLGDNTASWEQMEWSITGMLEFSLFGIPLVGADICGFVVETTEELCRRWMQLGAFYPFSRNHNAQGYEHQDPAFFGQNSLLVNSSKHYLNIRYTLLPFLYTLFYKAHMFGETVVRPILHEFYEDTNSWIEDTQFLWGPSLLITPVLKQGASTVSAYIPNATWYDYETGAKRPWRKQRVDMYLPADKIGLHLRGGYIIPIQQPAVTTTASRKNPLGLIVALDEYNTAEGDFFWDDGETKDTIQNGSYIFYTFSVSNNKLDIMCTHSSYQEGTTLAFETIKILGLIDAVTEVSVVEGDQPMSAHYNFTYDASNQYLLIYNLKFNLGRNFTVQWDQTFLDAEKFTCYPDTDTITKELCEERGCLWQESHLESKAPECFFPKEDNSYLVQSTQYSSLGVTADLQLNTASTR
saccharase/isomaltase (SI complex), sequence (P56729 with tags, fused parts or gaps limits assumed): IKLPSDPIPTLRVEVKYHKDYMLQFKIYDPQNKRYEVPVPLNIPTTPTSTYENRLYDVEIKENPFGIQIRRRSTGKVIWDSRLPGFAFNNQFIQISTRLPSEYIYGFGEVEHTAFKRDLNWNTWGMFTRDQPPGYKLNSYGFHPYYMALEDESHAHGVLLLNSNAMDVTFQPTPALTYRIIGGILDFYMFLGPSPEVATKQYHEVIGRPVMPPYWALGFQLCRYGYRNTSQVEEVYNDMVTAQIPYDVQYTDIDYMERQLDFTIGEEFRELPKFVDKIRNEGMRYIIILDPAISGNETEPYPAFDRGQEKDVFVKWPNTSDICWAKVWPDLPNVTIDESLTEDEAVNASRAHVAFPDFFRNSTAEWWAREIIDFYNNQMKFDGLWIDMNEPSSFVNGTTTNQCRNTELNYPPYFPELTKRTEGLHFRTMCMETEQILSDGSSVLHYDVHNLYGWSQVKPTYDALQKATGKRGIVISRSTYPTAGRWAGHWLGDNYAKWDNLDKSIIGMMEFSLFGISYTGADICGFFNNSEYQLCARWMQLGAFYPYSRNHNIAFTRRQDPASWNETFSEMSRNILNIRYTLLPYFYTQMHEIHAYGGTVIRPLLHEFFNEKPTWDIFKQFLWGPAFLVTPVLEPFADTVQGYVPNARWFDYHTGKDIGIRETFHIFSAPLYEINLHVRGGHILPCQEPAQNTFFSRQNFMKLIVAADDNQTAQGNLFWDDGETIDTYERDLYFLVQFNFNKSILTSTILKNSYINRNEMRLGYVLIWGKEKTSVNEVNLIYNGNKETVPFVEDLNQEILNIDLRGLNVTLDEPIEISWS
Source text: Solution 6: 1% solution of maltose in solution 1
Solution 7: 1% solution of sucrose in solution 1
Solution 8: 1% solution of isomalt in solution 1
Solution 9: 1% solution of isomaltulose in solution 1
Solution 10: Saccharase/isomaltase enzyme complex in solution 1

[2] = tested on: glucoamylase/maltase (GM complex)
Description: (§1) Solution 1: 0.1 mol/L triethanolamine (TEA) buffer, pH 7.0
(§2) Solution 11: Glucoamylase/maltase enzyme complex in solution 1
(§3) i) 0.7 unit of the enzyme complex saccharase/isomaltase (solution 10) or glucoamylase/maltase (solution 11) was added in each case to 1.0 mL of a carbohydrate solution heated to 37° C. (solution 2 to solution 8), mixed and incubated at 37° C.
(§4) ii) For incubation under more severe conditions, 16 units of the enzyme complex saccharase/isomaltase or 13 units of the enzyme complex glucoamylase/maltase were used. The reaction was stopped after 2 h by heating to 95° C. for 15 min. The resulting monosaccharides and the undegraded saccharides of the relevant batches were quantitatively determined by HPAEC.

human feces = assay: In vitro fermentation in human feces; assay type: cell-based; conditions: for Butyrate content (end sample): end of fermentation with human feces; for Degradation rate: 0.5% (w/v) substrate, feces suspension, anaerobic, 37° C.
Description: Incubation of carbohydrates with human feces allows statements to be made about the rate of metabolization by the bacterial population and formation of the short-chain fatty acid butyric acid.
To invest the fermentability in an in vitro fermentation experiment, Raftilose® P95 (fructooligosaccharides, DP4-5), galactosyl lactose (Oligomate DP 3) and lactosucrose were used for comparison as carbohydrates of similar structure and degree of polymerization, in addition to β-galactosyl isomalts.
An anaerobic medium of the following composition was used for the in vitro experiments:
9 mL of the anaerobic medium 1 described above are mixed with 0.5% (w/v) of the galactosyl isomalts to be tested (prepared according to Examples 1-3) and the corresponding controls lactosucrose and galactosyl lactose and then inoculated with 1 mL of a 10% feces suspension (mixed feces from two subjects) in anaerobic 50 mmol/L phosphate buffer, pH 7.0, to which 0.5 g/L cysteine/HCl was added beforehand as reducing agent.
The batches are then incubated in “Hungate” test tubes for a maximum of 28 h while shaking at 37° C. Samples are taken at various times and tested for content of residual oligosaccharides, short-chain fatty acids, lactic acid and pH.

[3] = Stability in the stomach: hydrolysis rate at pH 2.0; assay type: physicochemical; conditions: 1% solution, 10 mmol/L hydrochloric acid, pH 2.0, 37° C.
Description: The stability of a substance in the gastric passage can be simulated by determining the hydrolysis rate at pH 2.0. Sucrose and 1-kestose are used as controls.
In each case a 1% solution of the trisaccharides (DP 3) from Example 4 is incubated with 10 mmol/L hydrochloric acid, pH 2.0 at 37° C. for 3 h. Samples are taken from the reaction mixture after 60, 120 and 180 min and are analyzed by basic anion exchange chromatography, HPAEC.

[4] = tested on: pancreatin enzyme (Sigma); assay: Stability with respect to pancreatic enzymes; assay type: in vitro ADME; conditions: 1% solution, 0.2% pancreatin, pH 7.0, 210 min at 37° C.
Description: The pancreatic secretion contains a large number of hydrolases, including carbohydrate-degrading enzymes like α-amylase, which breaks down α-1,4-glucans (starch, glycogen) preferably to maltose and maltooligosaccharides. The test of the stability of saccharides with respect to pancreatic enzymes is carried out as follows.
3.0 mL of a carbohydrate solution (solution 2 to solution 6) is mixed with 0.1 mL of the enzyme solution (solution 7) per batch:
Solution 1: 20 mmol/L Na phosphate buffer, pH 7.0, with 6 mmol/L NaCl
Solution 2: 1% solution of β-1,4-galactosyl isomalt mixture in accordance with the invention, prepared according to Example 2 and Example 4, in solution 1
Solution 3: 1% solution of β-1,3-galactosyl isomalt mixture in accordance with the invention, prepared according to Example 1 and Example 4, in solution 1
Solution 4: 1% solution of β-1,6-galactosyl isomalt mixture in accordance with the invention; prepared according to Example 3 and Example 4, in solution 1
Solution 6: 1% starch solution (soluble starch, according to Zulkowski), in solution 1
Solution 7: 0.2% pancreatin enzyme (Sigma), dissolved in solution 1
After 210 min incubation in a thermomixer (interval shaking) at 37° C., the reaction is stopped by heating to 95° C. for 15 min and the samples are analyzed by HPAEC. The starch-containing sample (solution6+solution 7) is completely hydrolyzed before the HPAEC analysis by heating for 3 h in 1 mol/L hydrochloric acid at 95° C., and the glucose resulting from this is determined in order to calculate the starch content of the sample.

[5] = tested on: glucoamylase/maltase (GM complex); assay: Stability with respect to small intestine α-glucosidases: glucoamylase/maltase; conditions: 120 min incubation
Description: as §1, §2, §3, §4

[6] = Standard (0.7 unit), 37° C., pH 7.0

OC[C@H]1O[C@@H](O[C@H]2[C@H](O)[C@@H](O)C(O)O[C@@H]2CO)[C@H](O)[C@@H](O)[C@H]1O (some centres unmarked) [Lactose, reference compound]
Hydrolysis rate [%], incubation with lactase (lactase): 95.6%
Hydrolysis rate [%], incubation with lactase (lactase; listed as lactose): Nearly complete hydrolysis

Isomalt
Hydrolysis rate [%] ([1]; More stringent (16 units)): 52.4%
Hydrolysis rate [%] ([1]; More stringent (16 units), listed as isomalt): 52%
Hydrolysis rate [%] [1, 6]: 3.5%
Hydrolysis rate [%] ([1]; Standard (0.7 unit), 37° C., pH 7.0, listed as isomalt): partially broken down
Hydrolysis rate [%] [2]: 12.8%
Hydrolysis rate [%] ([2]; pH 7): 0%

OC[C@H]1O[C@@H](O[C@H]2[C@H](O)[C@@H](O)[C@@H](O[C@]3(CO)O[C@H](CO)[C@@H](O)[C@@H]3O)O[C@@H]2CO)[C@H](O)[C@@H](O)[C@H]1O [Lactosucrose, reference compound]
content of butyrate formed at the end of the fermentations (human feces): about 6 mmol/L
Butyrate content (end sample) (human feces): 6.5 mmol/L
Degradation rate (human feces; incubation time 7 (h)): 98.9%
Degradation rate (human feces; incubation time 7 (h), listed as lactosucrose): nearly completely metabolized
Degradation rate (human feces; incubation time 14 (h)): 100%

OC[C@H]1O[C@@](CO)(O[C@H]2O[C@H](CO)[C@@H](O)[C@H](O)[C@H]2O)[C@@H](O)[C@@H]1O [Sucrose, reference compound]
Hydrolysis rate [%] ([1]; Standard (0.7 unit), 37° C., pH 7.0, listed as saccharose): Nearly complete hydrolysis
Hydrolysis rate [%] ([3]; incubation time 0 min): 0%
Hydrolysis rate [%] ([3]; incubation time 60 min): 2%
Hydrolysis rate [%] ([3]; incubation time 120 min): 5%
Hydrolysis rate [%] ([3]; incubation time 180 min): 8%

OC[C@H]1O[C@@](CO)(OC[C@@]2(O[C@H]3O[C@H](CO)[C@@H](O)[C@H](O)[C@H]3O)O[C@H](CO)[C@@H](O)[C@@H]2O)[C@@H](O)[C@@H]1O [1-Kestose, reference compound]
Hydrolysis rate [%] ([3]; incubation time 0 min): 0%
Hydrolysis rate [%] ([3]; incubation time 60 min): 11%
Hydrolysis rate [%] ([3]; incubation time 120 min): 25%
Hydrolysis rate [%] ([3]; incubation time 180 min): 36%

OCC1O[C@@H](OCC2O[C@H](OC[C@@H](O)[C@@H](O)[C@H](O)C(O)CO)C(O)C(O)[C@@H]2O)C(O)C(O)[C@H]1O (mixture of isomers) [β-1,6-Galactosyl isomalt, β-D-galactosyl-(1→6)-α-D-glucosyl-(1→6)-D-sorbitol(β-1,6-galactosyl-1,6-GPS) and β-D-galactosyl-(1→6)-α-D-glucosyl-(1→1)-D-mannitol(β-1,6-galactosyl-1,1-GPM)]
Butyrate content (end sample) (human feces): 15.3 mmol/L
Degradation rate (human feces; incubation time 7 (h)): 64.2%
Degradation rate (human feces; incubation time 22 (h)): 96.1%
Degradation rate (human feces; incubation time 28 (h)): 99.2%
Hydrolysis rate [%], incubation with lactase (lactase): 9.3%
Hydrolysis rate [%] ([3]; incubation time 0 min): 0%
Hydrolysis rate [%] ([3]; incubation time 60 min): 0%
Hydrolysis rate [%] ([3]; incubation time 120 min): 0%
Hydrolysis rate [%] ([3]; incubation time 180 min): <1%
Decomposition rate [%] [4]: <1%
Hydrolysis rate [%] ([5]; More stringent (13 units)): 0%
Hydrolysis rate [%] [5, 6]: 0%

OC[C@H]1O[C@H](OC[C@H]2O[C@](O)(CO)[C@@H](O)[C@@H]2O)[C@H](O)[C@@H](O)[C@@H]1O [Isomaltulose, 6-O-α-D-glucopyranosyl-(1→6)-β-D-fructofuranose]
Hydrolysis rate [%] ([1]; More stringent (16 units)): 79.0%
Hydrolysis rate [%] [1, 6]: 18.0%
Hydrolysis rate [%] [2]: 39.9%
Hydrolysis rate [%] ([2]; pH 7): 3.1%

OC[C@H]1O[C@H](O[C@H]2[C@H](O)[C@@H](O)[C@H](O)O[C@@H]2CO)[C@H](O)[C@@H](O)[C@@H]1O [Maltose]
Hydrolysis rate [%] [5, 6]: Nearly complete hydrolysis

galactosyl lactose [Galactosyl-Lactose (Oligomate DP 3), reference compound]
content of butyrate formed at the end of the fermentations (human feces): about 6 mmol/L
Butyrate content (end sample) (human feces): 6.3 mmol/L
Degradation rate (human feces; incubation time 7 (h)): 96.6%
Degradation rate (human feces; incubation time 7 (h), listed as galactosyl lactose): nearly completely metabolized
Degradation rate (human feces; incubation time 14 (h)): 99.5%
Degradation rate (human feces; incubation time 22 (h)): 100%

OCC1O[C@@H](O[C@@H]2C(CO)O[C@H](OC[C@@H](O)[C@@H](O)[C@H](O)C(O)CO)C(O)C2O)C(O)C(O)[C@H]1O (mixture of isomers) [β-1,4-Galactosyl isomalt, β-D-galactosyl-(1→4)-α-D-glucosyl-(1→6)-D-sorbitol (β-1,4-galactosyl-1,6-GPS) and β-D-galactosyl-(1→4)-α-D-glucosyl-(1→1)-D-mannitol(β-1,4-galactosyl-1,1-GPM)]
Degradation rate (human feces; incubation time 7 (h)): 61%
Degradation rate (human feces; incubation time 22 (h)): 97.7%
Degradation rate (human feces; incubation time 28 (h)): 96%
Hydrolysis rate [%], incubation with lactase (lactase): 13.4%
Hydrolysis rate [%] ([3]; incubation time 0 min): 0%
Hydrolysis rate [%] ([3]; incubation time 60 min): 0%
Hydrolysis rate [%] ([3]; incubation time 120 min): 0%
Hydrolysis rate [%] ([3]; incubation time 180 min): <1%
Decomposition rate [%] [4]: <1%
Hydrolysis rate [%] ([5]; More stringent (13 units)): 0%
Hydrolysis rate [%] [5, 6]: 0%
